From patent US11344510B2, “Arylcyclohexylamine derivatives and their use in the treatment of psychiatric disorders” (Gilgamesh Pharmaceuticals, Inc., priority 2019, dated 2022)
Structures can show the parent of a compound that is named as a salt. Where two headings read alike, the source gives them in different places.

How the values were obtained:
[1] = Oral bioavailability in mice, Method B; assay type: in vivo; conditions: CD-1 mice; for AUC0-inf (iv) / AUC0-last (po) / AUC(0-inf): Method B: values represent AUC0-last (footnote); for F: 10 mg/kg; for half-life / Cmax / AUC(0-inf): male, mouse
Experimental: Animals. Male CD-1 mice were used in these studies Animals were randomly assigned to treatment groups and were fasted for 4 h before oral dosing.
Drugs. Test compounds were dissolved in a vehicle consisting of normal saline (compounds 19S and 88R) or a mixture of 5% v/v N-methyl-2-pyrrolidone, 5% v/v Solutol HS-15, and 90% v/v normal saline (compounds 11S, 11R, 114S, and 114R). They were then administered intravenously (iv) or orally (po) at a dose of 10 mg/kg (calculated based on freebase) and at a volume of 5 mL/kg body weight. Compounds were tested as the racemates (indicated by “rac” nomenclature) or pure enantiomers (indicated by “R” or “S” nomenclature).
Sample Collection and Bioanalysis. Blood samples (approximately 60 μL) were collected under light isoflurane anesthesia (Surgivet®) from the retro orbital plexus at 0.08, 0.25, 0.5, 1, 2, 4, 8, and 24 h (4 animals per time point) Immediately after blood collection, plasma was harvested by centrifugation at 4000 rpm for 10 min at 4° C. and samples were stored at −70±10° C. until bioanalysis. Following blood collection, animals were immediately sacrificed, the abdominal vena-cava was cut open, and the whole body was perfused from the heart using 10 mL of normal saline, and brain samples were collected from all animals After isolation, brain samples were rinsed three times in ice-cold normal saline (for 5-10 seconds/rinse using ˜5-10 mL normal saline in disposable petri dish for each rinse) and dried on blotting paper. Brain samples were homogenized using ice-cold phosphate-buffered saline (pH 7.4). Total homogenate volume was three times the tissue weight. All homogenates were stored at −70±10° C. until bioanalysis. For bioanalysis, 25 μL aliquots of plasma/brain study samples or spiked plasma/brain calibration standards were added to individual pre-labeled micro-centrifuge tubes followed by 100 μL of an internal standard solution (glipizide, 500 ng/mL in acetonitrile) except for blanks, where 100 μL of acetonitrile was added. Samples were vortexed for 5 minutes and then centrifuged for 10 minutes at 4000 rpm at 4° C. Following centrifugation, 100 μL of each clear supernatant was transferred to a 96 well plate and analyzed with a fit-for-purpose LC-MS/MS method, with authentic samples of each analyte used for calibration and identification.
Data Analysis. Pharmacokinetic parameters were estimated using the non-compartmental analysis tool of Phoenix® WinNonlin software (Ver 8.0).

[2] = target: MK-801 binding site of the N-methyl-D-aspartate receptor (NMDAR); assay: NMDAR radioligand binding with [3H]MK-801, Method B; parameters: species or system Sprague Dawley rat; conditions: for Ki: MK-801 site, Method B, male Sprague Dawley rat cortex, 5.0 nM [3H]MK-801, read-out: NMDAR Ki ± SEM
Experimental: Radioligand Binding—Method B. Affinity of the test compounds for NMDAR was determined in radioligand binding experiments with [^3H]MK-801 by WuXi AppTec (Hong Kong) Limited, under the conditions described in Table 13.

[3] = target: T1, dopamine transporter (DAT) (Homo sapiens, UniProt Q01959); assay: Fluorescent substrate uptake inhibition, DAT; assay type: cell-based; conditions: for inhibition at 10 µM: CHO cells expressing DAT
T1 construct: expressed in transfected cells; host or cells: CHO (uptake)
T1 sequence (Q01959 whole entry, species assumed): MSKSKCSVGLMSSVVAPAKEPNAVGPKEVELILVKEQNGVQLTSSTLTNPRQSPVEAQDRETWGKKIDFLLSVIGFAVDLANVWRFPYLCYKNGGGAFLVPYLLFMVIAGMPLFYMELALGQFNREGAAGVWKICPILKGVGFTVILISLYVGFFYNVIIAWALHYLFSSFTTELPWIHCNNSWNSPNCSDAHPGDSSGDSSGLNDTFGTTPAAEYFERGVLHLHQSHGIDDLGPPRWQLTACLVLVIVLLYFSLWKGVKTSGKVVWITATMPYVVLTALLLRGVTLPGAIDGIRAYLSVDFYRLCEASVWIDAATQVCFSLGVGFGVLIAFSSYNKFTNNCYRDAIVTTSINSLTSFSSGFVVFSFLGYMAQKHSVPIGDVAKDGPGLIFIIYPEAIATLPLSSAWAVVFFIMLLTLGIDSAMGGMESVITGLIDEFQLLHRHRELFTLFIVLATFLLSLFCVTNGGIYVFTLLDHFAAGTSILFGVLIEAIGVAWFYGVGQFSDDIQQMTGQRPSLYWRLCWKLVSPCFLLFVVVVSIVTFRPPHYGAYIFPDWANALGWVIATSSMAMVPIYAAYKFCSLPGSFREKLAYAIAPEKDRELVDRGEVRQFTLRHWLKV

[4] = HLM stability (High Activity); assay type: in vitro ADME; conditions: both sexes, human, liver microsomes, pH 7.4, Condition 2 (High Activity), 1.0 mg protein/mL
Method in brief: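 Pooled male and female human liver microsomes, 1.0 mg protein/mL, in 100 mM PBS pH 7.4 with NADPH-regenerating system; compound 1 μM at 37° C, five time points over 60 min. Parent remaining by LC-MS/MS; kel, t1/2 and Clint from linear regression of ln(AUC) versus time.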

[5] = calculated based on brain exposure (AUC0-last), Method B
[6] = brain, 10 mg/kg iv, Method B, read-out: t1/2 (iv)
[7] = brain, 10 mg/kg po, Method B, read-out: t1/2 (po)
[8] = plasma, 10 mg/kg iv, read-out: AUC0-inf (iv) (converted)
[9] = plasma, 10 mg/kg iv, Method B, read-out: t1/2 (iv)
[10] = plasma, 10 mg/kg po, read-out: AUC0-inf (po) (converted)
[11] = plasma, 10 mg/kg po, Method B, read-out: t1/2 (po)
[12] = plasma, Method B: based on AUC0-last

Structure (SMILES)	AUC0-inf (iv) ([1]; brain, 10 mg/kg iv)	AUC0-last (po) ([1]; brain, 10 mg/kg po)	F [1, 5]	half-life [1, 6]	Cmax ([1]; brain, 10 mg/kg po, Method B)	half-life [1, 7]	AUC(0-inf) [1, 8]	half-life [1, 9]	Cmax ([1]; plasma, 10 mg/kg po, Method B)	AUC(0-inf) [1, 10]	half-life [1, 11]	F [1, 12]	Ki [2]	inhibition at 10 µM [3]	half-life at 1 μM [4]	microsomal CLint at 1 μM [4]	IC50 [3]	NMDAR binding affinity, comparison in words ([2]; 14R vs rac-ketamine, (R)-ketamine, (S)-ketamine and 14S, R enantiomers vs S enantiomers or racemates)
Cc1ccccc1[C@]1(N)CCCCC1=O [Compound 114R, (R)-2-amino-2-(o-tolyl)cyclohexan-1-one]	155,752 ng*min/g	38,185 ng*min/g	25%	0.32 h	683 ng/g	1.12 h	325 ng·h/mL	0.75 h	319 ng/mL	430 ng·h/mL	1.28 h	132%	> 23 µM	6.2%	–	–	–	–
O=C1CCCC[C@@]1(c1ccccc1)N1CCC1 [Compound 84S, (S)-2-(azetidin-1-yl)-2-phenyl-cyclohexan-1-one]	–	–	–	–	–	–	–	–	–	–	–	–	1.3 µM	32.2%	2.76 h	4 µL/min/mg	19.5 µM	–
CN[C@]1(c2cccc(F)c2)CCCCC1=O [Compound 19S, (5)-2-(3-fluorophenyl)-2-(methylamino)cyclohexan-1-one]	171,028 ng*min/g	23,552 ng*min/g	14%	1.93 h	436 ng/g	2.35 h	1130 ng·h/mL	1.9 h	442 ng/mL	671 ng·h/mL	2.28 h	59%	2.1 µM	18.1%	1.59 h	7 µL/min/mg	–	–
O=C1CCCCC1(c1ccccc1)N1CCCC1 (racemic) [Compound 27rac, 2-phenyl-2-(pyrrolidin-1-yl)cyclohexan-1-one]	–	–	–	–	–	–	–	–	–	–	–	–	1.1 µM	49.5%	3.87 h	3 µL/min/mg	6.5 µM	–
COCCNC1(c2ccccc2)CCCCC1=O (racemic) [Compound 29rac, 2-((2-methoxyethyl)amino)-2-phenylcyclohexan-1-one]	–	–	–	–	–	–	–	–	–	–	–	–	4.4 µM	–	2.33 h	5 µL/min/mg	–	–
CNC1(c2ccccc2Cl)CCCCC1=O (racemic) [rac-ketamine, racemic ketamine, reference compound]	–	–	–	–	–	–	–	–	–	–	–	–	–	–	0.613 h	19 µL/min/mg	–	–
[2H]C([2H])([2H])N[C@@]1(c2ccccc2)CCCCC1=O [Compound 88R, (R)-2-((methyl-d3)amino)-2-phenylcyclohexan-1-one]	334,518 ng*min/g	143,445 ng*min/g	43%	0.6 h	3100 ng/g	1.33 h	1530 ng·h/mL	0.57 h	621 ng/mL	718 ng·h/mL	1.38 h	47%	3.4 µM	7.9%	2.92 h	4 µL/min/mg	–	–
O=C1CCCC[C@]1(c1ccccc1)N1CCC1 [Compound 84R, (R)-2-(azetidin-1-yl)-2-phenyl-cyclohexan-1-one]	–	–	–	–	–	–	–	–	–	–	–	–	2.3 µM	28.2%	2.75 h	4 µL/min/mg	19.4 µM	–
N[C@]1(c2ccccc2)CCCCC1=O [Compound 11S, (S)-2-amino-2-phenyl-cyclohexan-1-one]	434,023 ng*min/g	292,247 ng*min/g	67%	0.7 h	2190 ng/g	–	3420 ng·h/mL	1.06 h	2130 ng/mL	4200 ng·h/mL	–	123%	1.2 µM	10.1%	3.25 h	4 µL/min/mg	–	–
CN[C@@]1(c2ccccc2)CCCCC1=O [Compound 14R, (R)-2-(methylamino)-2-phenylcyclohexan-1-one]	–	–	–	–	–	–	–	–	–	–	–	–	4.5 µM	-4.5%	9.77 h	1 µL/min/mg	–	weaker NMDAR binding
CNC1(c2ccccc2)CCCCC1=O (racemic) [Compound 14rac, 2-(methylamino)-2-phenylcyclohexan-1-one hydrochloride]	–	–	–	–	–	–	–	–	–	–	–	–	–	–	6.12 h	2 µL/min/mg	–	–
Cc1ccccc1[C@@]1(N)CCCCC1=O [Compound 114S, (S)-2-amino-2-(o-tolyl)cyclohexan-1-one]	244,634 ng*min/g	86,338 ng*min/g	35%	–	825 ng/g	–	757 ng·h/mL	1.34 h	746 ng/mL	1470 ng·h/mL	1.32 h	194%	2.5 µM	-15.2%	–	–	–	–
CN[C@]1(c2ccccc2)CCCCC1=O [Compound 14S, (S)-2-(methylamino)-2-phenylcyclohexan-1-one]	–	–	–	–	–	–	–	–	–	–	–	–	0.69 µM	-4.5%	6.18 h	2 µL/min/mg	–	–
N[C@@]1(c2ccccc2)CCCCC1=O [Compound 11R, (R)-2-amino-2-phenyl-cyclohexan-1-one]	621,341 ng*min/g	220,091 ng*min/g	35%	1.17 h	1470 ng/g	1.9 h	5570 ng·h/mL	1.11 h	1430 ng/mL	4210 ng·h/mL	2.41 h	76%	9.4 µM	-11.8%	3.31 h	3 µL/min/mg	–	–
